Reference: ChEMBL document CHEMBL5223088, “EP2 Antagonists (2011-2021): A Decade's Journey from Discovery to Therapeutics” (J Med Chem, 2021)
Converted amounts (≈) assume the structure as drawn.

Legend:
[1] = Ratio of drug level in brain to plasma in C57BL/6 mouse at 3 mg/kg, ip by LC-MS/MS analysis; format: ADME, organism-based; details: read-out: BPR
[2] = Solubility of the compound; format: ADME
[3] = target: T1, Prostaglandin E2 receptor EP2 subtype (Homo sapiens, UniProt P43116); experiment: Binding affinity to EP2 receptor in human mast cell assessed as inhibition constant; format: cell-based
T1 sequence (P43116 whole entry): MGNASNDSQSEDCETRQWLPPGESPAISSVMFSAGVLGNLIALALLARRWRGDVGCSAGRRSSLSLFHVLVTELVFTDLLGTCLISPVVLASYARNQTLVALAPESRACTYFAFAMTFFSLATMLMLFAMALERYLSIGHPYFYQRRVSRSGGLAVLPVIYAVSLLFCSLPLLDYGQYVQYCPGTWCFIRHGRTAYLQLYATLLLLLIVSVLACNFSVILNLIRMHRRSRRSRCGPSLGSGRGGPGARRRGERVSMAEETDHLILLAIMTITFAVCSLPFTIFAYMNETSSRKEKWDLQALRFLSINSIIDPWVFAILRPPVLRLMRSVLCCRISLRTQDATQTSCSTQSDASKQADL

[4] = target: T2, Prostaglandin D2 receptor (Homo sapiens, UniProt Q13258); experiment: Binding affinity to DP1 receptor in human mast cell assessed as inhibition constant; format: cell-based
T2 sequence (Q13258 whole entry): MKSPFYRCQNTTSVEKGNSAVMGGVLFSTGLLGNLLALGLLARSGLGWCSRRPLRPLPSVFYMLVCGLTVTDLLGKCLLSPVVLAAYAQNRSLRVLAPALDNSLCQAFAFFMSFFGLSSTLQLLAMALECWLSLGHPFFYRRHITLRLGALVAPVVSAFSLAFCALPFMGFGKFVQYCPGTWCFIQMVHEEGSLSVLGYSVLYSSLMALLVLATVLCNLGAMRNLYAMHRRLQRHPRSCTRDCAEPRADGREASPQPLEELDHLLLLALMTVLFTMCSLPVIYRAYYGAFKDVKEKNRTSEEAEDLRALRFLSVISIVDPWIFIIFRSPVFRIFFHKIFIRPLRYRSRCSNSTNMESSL

[5] = target: T3, Prostaglandin E2 receptor EP4 subtype (Homo sapiens, UniProt P35408); experiment: Binding affinity to EP4 receptor in human mast cell assessed as inhibition constant; format: cell-based
T3 sequence (P35408 whole entry): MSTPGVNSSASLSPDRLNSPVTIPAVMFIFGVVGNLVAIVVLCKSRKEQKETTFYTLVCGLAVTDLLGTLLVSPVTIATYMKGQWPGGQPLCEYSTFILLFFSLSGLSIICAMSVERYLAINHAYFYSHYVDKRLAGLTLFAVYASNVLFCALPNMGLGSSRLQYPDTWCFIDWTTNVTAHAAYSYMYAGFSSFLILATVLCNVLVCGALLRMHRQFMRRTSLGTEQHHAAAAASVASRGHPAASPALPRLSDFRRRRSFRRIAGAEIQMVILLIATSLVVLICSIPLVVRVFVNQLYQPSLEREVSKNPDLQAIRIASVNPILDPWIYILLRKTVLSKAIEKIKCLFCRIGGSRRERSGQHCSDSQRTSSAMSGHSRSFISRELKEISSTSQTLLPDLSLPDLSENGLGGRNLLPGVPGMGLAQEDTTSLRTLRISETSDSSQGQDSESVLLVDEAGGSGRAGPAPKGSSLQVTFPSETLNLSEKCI

[6] = target: T1, Prostaglandin E2 receptor EP2 subtype; experiment: Potency index, ratio of PF-0418948 Ki to test compound Ki for binding affinity to human EP2
[7] = target: T1, Prostaglandin E2 receptor EP2 subtype; experiment: Binding affinity to human EP2 receptor expressed in C6 cells assessed as binding constant at 10 mins by TR-FRET cAMP functional assay; format: cell-based; details: filed as antagonist
[8] = Half life in mouse C57BL/6 plasma at 20 mg/kg,ip by LC-MS/MS analysis; format: ADME, organism-based; details: C57BL/6, mouse
[9] = Ratio of drug level in brain to plasma in C57BL/6 mouse at 20 mg/kg, ip by LC-MS/MS analysis; format: ADME, organism-based; details: read-out: BPR
[10] = Ratio of drug level in brain to plasma in pilocarpine-induced Sprague-Dawley rat at 25 mg/kg, ip after 6 hrs by LC-MS/MS analysis
[11] = target: T2, Prostaglandin D2 receptor; experiment: Binding affinity to human DP1 receptor expressed in CHO cells assessed as inhibition constant; format: cell-based
[12] = target: T4, Prostaglandin E2 receptor EP1 subtype (Homo sapiens, UniProt P34995); experiment: Binding affinity to EP1 receptor (unknown origin) assessed as inhibition constant
T4 sequence (P34995 whole entry): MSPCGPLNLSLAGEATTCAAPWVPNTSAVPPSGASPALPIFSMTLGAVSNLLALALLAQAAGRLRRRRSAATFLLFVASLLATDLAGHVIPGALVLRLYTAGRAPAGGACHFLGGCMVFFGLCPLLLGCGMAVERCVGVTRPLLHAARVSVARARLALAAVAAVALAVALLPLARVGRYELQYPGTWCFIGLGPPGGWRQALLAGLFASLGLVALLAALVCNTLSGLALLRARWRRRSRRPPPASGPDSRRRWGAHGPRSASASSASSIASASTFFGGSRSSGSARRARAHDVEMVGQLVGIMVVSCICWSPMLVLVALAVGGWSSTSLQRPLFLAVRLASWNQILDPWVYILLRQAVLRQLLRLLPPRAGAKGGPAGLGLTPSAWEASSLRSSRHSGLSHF

[13] = target: T5, Prostaglandin E2 receptor EP3 subtype (Homo sapiens, UniProt P43115); experiment: Binding affinity to EP3 receptor (unknown origin) assessed as inhibition constant
T5 sequence (P43115 whole entry): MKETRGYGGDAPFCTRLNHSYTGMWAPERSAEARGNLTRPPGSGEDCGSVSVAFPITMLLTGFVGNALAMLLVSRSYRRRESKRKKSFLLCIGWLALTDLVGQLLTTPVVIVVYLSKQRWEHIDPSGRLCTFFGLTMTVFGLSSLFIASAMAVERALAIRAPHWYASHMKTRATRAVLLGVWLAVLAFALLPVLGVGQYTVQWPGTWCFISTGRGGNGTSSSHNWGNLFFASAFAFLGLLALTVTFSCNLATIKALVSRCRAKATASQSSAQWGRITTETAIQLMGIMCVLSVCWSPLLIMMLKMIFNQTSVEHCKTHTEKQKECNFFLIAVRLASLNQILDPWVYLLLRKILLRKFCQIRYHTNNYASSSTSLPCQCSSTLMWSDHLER

[14] = target: T3, Prostaglandin E2 receptor EP4 subtype; experiment: Binding affinity to human EP4 receptor expressed in CHO cells assessed as inhibition constant; format: cell-based
[15] = target: T1, Prostaglandin E2 receptor EP2 subtype; experiment: Binding affinity to human EP2 receptor expressed in rat C6 cells assessed as binding constant; format: cell-based; details: filed as antagonist
[16] = target: T6, Prostaglandin D2 receptor (Homo sapiens) (UniProt Q13258); experiment: Binding affinity to human DP1 receptor expressed in rat C6 cells assessed as binding constant; format: cell-based; details: filed as antagonist
T6 sequence (whole entry): T2 sequence (Q13258 whole entry)

[17] = target: T3, Prostaglandin E2 receptor EP4 subtype; experiment: Binding affinity to EP4 receptor (unknown origin) assessed as binding constant; details: filed as antagonist
[18] = Half life in C57BL/6 mouse at 10 mg/kg, po by LC-MS/MS analysis; format: ADME, organism-based; details: in vivo
[19] = Ratio of drug level in brain to plasma in C57BL/6 mouse at 10 mg/kg, po by LC-MS/MS analysis; format: ADME, organism-based; details: read-out: BPR
[20] = Aqueous solubility of compound in PBS buffer at pH 7.4 by nephelometric analysis; format: ADME

Compound `COc1cc(/C=C/C(=O)NCCn2c(C)cc3ccccc32)cc(OC)c1OC` has a Kp [1] of 0.3 and a solubility [2] of 45 µM (≈ 17.8 µg/mL).

Work on `COc1ccc(C(=O)N2CCC(COc3ccc(-c4ccc(C#N)cc4)cc3)(C(=O)O)C2)cc1` (stereo not given) yielded a Ki [3] of 0.63 nM, a Ki [4] of 1200 nM and a Ki [5] of 16.3 µM. The Ratio Ki [6] was 10.

`Cc1[nH]c2ccccc2c1CCNC(=O)c1ccc(-c2c[nH]cn2)cc1` showed a Kb [7] of 13.2 nM, a half-life [8] of 168 min and a Kp [9] of 0.02. The Kp at 6 h [10] was 0.03.

For `COc1ccc2cc(OCC3(C(=O)O)CN(C(=O)c4ccc(F)cc4)C3)ccc2c1` [PF-04418948], the Ki [11] was > 10 µM, the Ki [12] was > 10 µM and the Ki [13] was > 10 µM. The Ki [14] was > 10 µM.

With `Cc1cc2ccccc2n1CCNC(=O)c1ccc(-c2nnn[nH]2)cc1` the Kb [15] was 48.5 nM, the Kb [16] was 18 µM and the Kb [17] was 15 µM. The half-life [18] was 630 min, the Kp [19] was 0.02 and the solubility kinetic [20] was 500 µM (≈ 173 µg/mL).
